In patent US20060093580A1, “Tolerogenic vaccine and method” (priority 2004, published 2006):
Several values for one entry are separate records, joined by “and”; a condition that tells them apart may be missing. Identical values can stand only once. Entries after “also recorded” stand apart in the source; their conditions may differ. Like-named read-outs stand apart in the source and are kept apart here.

Legend:
CD4 Foxp3^+ cells = assay: Foxp3 and CTLA-4 flow cytometry of CD4 T cells expanded with alcohol; format: cell-based, mouse
Method: (B) Foxp3 and CTLA4 levels were determined by flow cytometry analysis of CD4^med, CD4^t-but or CD4^1-but cells at day 1 (upper panels) and day 8 (lower panels).
After 3 days of culture with alcohol, cells were expanded in the medium free of alcohol but containing IL-2 for 4 days and analyzed by flow cytometry with Foxp3 and CTLA-4.

CD4^+CD25^− T cells [1] = assay: CD25 expression by flow cytometry after anti-CD3 stimulation; format: cell-based, mouse; settings: anti-CD3 + APCs, 16 hours
Method: (§1) After 16 hours of stimulation, expression of CD25 was analyzed by flow cytometry. Dotted lines represent the staining level of unstimulated cells.

splenic CD4^+ T cells = assay: Anti-CD3-induced elevation of intracellular Ca2+ (Fura2-AM); format: cell-based, mouse; settings: added together with stimulating antibody
Method: (C) 1-butanol effect on anti-CD3-induced elevation of intracellular Ca2^+. CD4 T cells were labeled with Fura2-AM and activated with biotin conjugated anti-CD3 and streptavidin. […] Levels of Ca2^+ were determined by the ratio of fluorescence at 340/380 nm.
To further elucidate the role of PLD in T cell activation, TCR proximal signaling events were examined. First, the effect of 1-butanol on the elevation of intracellular Ca^2+ was determined. […] Elevation of intracellular Ca^2+ is required for activation of transcription factors, such as NF-AT, which are essential for CD25 and IL-2 expression (Crabtree, G. R. and Olson, E. N. (2002), Cell 109(Suppl):867-879; Hogan, P. G. et al. (Sep. 15, […]), Genes Dev. 17:2205-[…]).

CD4^+CD25^− T cells [2] = assay: In vitro suppression assay; format: cell-based, mouse; settings: 1-butanol and anti-CD3 treatment
Method: CD4^+CD25^− T cells (2.5×10^4 cells) were cultured with graded doses of CD4^med cells (open circles), CD4^t-but cells (open squares) or CD4^1-but cells (closed squares) for 72 hours with anti-CD3 antibody and APCs. Proliferation of cells was measured as in (B).
Cells were cultured as in (C) using equal numbers of CD4^+CD25^− cells and CD4^med cells, CD4^1-but cells, or CD4^t-but cells. Production of IL-2 after 24 hours of co-culture was measured.
(H) Effect of CD4^med, CD4^t-but, and CD4^1-but cells on cytokine production by CD4^+25^− T cells. CD4^+25^− T cells were stimulated and co-cultured with CD4^med cells (med), CD4^t-but cells (t-but), or CD4^1-but cells (1-but) as described in FIG. 1D. IL-4 and IFN-γ in the culture supernatants were measured by ELISA.
Suppression of freshly isolated CD4^+CD25^− cells was measured as in FIG. 1C.
Suppressive effects were measured by ^3H-thymidine incorporation or by cytokine production.

CD4^+CD25^+ T cells [3] = system: CD4^+CD25^+ T cells
Method: as §1

[4] = system: splenic CD4 and CD8 T cells; assay: CFSE cell division of anti-CD3-stimulated splenic T cells; format: cell-based, mouse; settings: 0.3% alcohol, anti-CD3 + irradiated APCs, 72 hours
Method: (§2) For determination of cell division, T cells were labeled with 1 μM CFSE (Molecular Probes, Eugene, Oreg.) for 15 minutes at 37° C. CFSE-labeled T cells (5×10^5 cells/ml) were cultured with 0.2 μg/ml of anti-CD3 with APCs (T cell-depleted splenocytes, γ-irradiated with 2000 rads, 8×10^5 cells/ml). […] After 72 hours, cells were harvested and stained with antibody against CD4 and CD8. The number of cell divisions was determined by flow cytometry. Exogenous IL-2 was added at 50 units/ml where indicated. For the proliferation assay, ^3H-thymidine (0.5 μCi/well) was added for the last 6 hours of culture. Cytokine assays were performed by enzyme-linked immunoassays as previously described (Singh, N. et al. (1999), J. Immunol. 163:2373-2377).

CD4^+CD25^− T cells [5] = system: CD4^+CD25^− T cells
Method: (I) Cytokine production by 1-but and t-but-treated CD4^+25^− and CD4^+25^+ T cells. CD4^+25^− and CD4^+25^+ T cells were stimulated as described in FIG. 3A. The same supernatants were used to measure the amount of IL-4 (left panel) and IFN-γ (right panel). Closed bars show medium-treated T cells, gray bars show t-but- treated T cells, and open bars show 1-but-treated T cells.
(A) Effect of 1-butanol on anti-CD3-induced IL-2 production. […] IL-2 production was determined by ELISA of culture supernatants obtained after 24 hours of stimulation.
as §2

CD4^+CD25^+ T cells [6] = settings: 0.3%, activation by anti-CD3 and IL-2
Method: (§3) (B) 1-butanol effect on the proliferative response of CD4^+CD25^− and CD4^+CD25^+ T cells to anti-CD3 or anti-CD3^+ exogenous IL-2. […] Proliferation of cells was measured as in FIG. 1B.
(§4) (D) CD4^+CD25^− and CD4^+CD25^+ T cells (2×10^4 cells/well) were stimulated by anti-CD3 in the absence (left panel) or presence (right panel) of exogenous IL-2. […] [3H]-thymidine uptake was measured 72 hours later.
as §2
We also examined the effect of 1-alcohol on the proliferation of CD4^+CD25^− and CD4^+CD25^+ cells. CD4^+CD25^− and CD4^+CD25^+ cells were isolated from splenocytes using a MoFlo cell sorter. […] Proliferation was measured by ^3H-thymidine incorporation on day 3.

CD4^+CD25^− T cells [7] = assay: 3H-thymidine proliferation after anti-CD3 stimulation with or without exogenous IL-2; format: cell-based, mouse; settings: 0.3%
Method: as §3, §4, §2
We also examined the effect of 1-alcohol on the proliferation of CD4^+CD25^− and CD4^+CD25^+ cells. CD4^+CD25^− and CD4^+CD25^+ cells were isolated from splenocytes using a MoFlo cell sorter. Each cell type was stimulated with anti-CD3 antibody in the presence of irradiated APCs with or without the addition of exogenous IL-2. Proliferation was measured by ^3H-thymidine incorporation on day 3.

ERK = assay: Anti-CD3-induced ERK activation (phospho-ERK staining); format: cell-based, mouse; settings: anti-CD3 + APCs, 3 hours
Method: (D) Effect of 1-butanol on antl-CD3-induced ERK activation. CD4 T cells were stimulated with anti-CD3 and APCs for 3 hours and stained with antibody against phospho-ERK. […] Thick lines show the data from stimulated cells and thin lines show data from unstimulated cells.
TCR stimulation also induces activation of the Ras/ERK pathway, and sustained ERK activation is essential for IL-2 production (Iwashima, M. (May, 2003), Immunol. Review 192; T. Koike et al., J. Biol. Chem. 278:15685-15692).

PLD [8] = assay: TCR-induced PLD activity (3H-oleate labelling, PA and Pet by TLC); format: cell-based, mouse; settings: 100 μM, plate-bound anti-CD3 40 minutes, 0.5% ethanol, primary T cells
Description: FIG. 5 Effect of adenosine on TCR-induced PLD activation. (A) Phosphatidic acid production by primary CD4 T cells stimulated with anti-CD3 antibodies in the presence of ethanol (open bar) and adenosine (closed bar) compared with unstimulated T cells. (B) Phosphatidylethanol (Pet) production by primary CD4 Mouse CD4 T cells stimulated with anti-CD3 antibodies in the presence of ethanol (open bar) and adenosine (closed bar) compared with unstimulated T cells.
Mouse CD4 T cells were labeled with ^3H-oleate to measure PLD activity (Zheng, et al. (2003), Biochim. Biophys. Acta. 1643(1-3):25-36). Cells were then washed and activated by plate-bound anti-CD3 for 40 minutes in the presence of 0.5% of ethanol (open bar). Effect of adenosine was examined using the medium containing 100 μM of adenosine (closed bar). Cells were harvested and lipid extracts of cells were separated on TLC plates and bands corresponding to phosphatidic acid (PA) (FIG. 5A) and phosphatidylethanol (Pet) (FIG. 5B) were excised and counted by liquid scintillation.

PLD [9] = settings: Thibault 2000; Grenier 2003; cited from earlier work
[10] = anti-CD3 + APCs, 3H-thymidine at 72 hours

Compound: CCCCO [1-butanol]
- expansion of Foxp3^+ cells (total cell number) (CD4 Foxp3^+ cells; in one week): more than 10 fold
- expression of CD25 by CD4^+CD25^− T cells (CD4^+CD25^− T cells [1]): blocked the expression
- anti-CD3-induced elevation of intracellular Ca^2+ (splenic CD4^+ T cells): substantially impaired
- suppressive activity of population expanded from total CD4^+ T cells (CD4^+CD25^− T cells [2]): strong suppressive activity
- suppressive function of population expanded from CD4^+ T cells with CD25^+ cells removed (CD4^+CD25^− T cells [2]): no suppressive function
- up-regulation of CD25 expression in CD4^+CD25^+ T cells (CD4^+CD25^+ T cells [3]; anti-CD3 + APCs, 16 hours): not affected
- expression of CD69 by CD4^+CD25^+ T cells (CD4^+CD25^+ T cells [3]; not shown): did not impair
- anti-CD3 induced cell division [4]: abrogated cell division
- production of IL-2 by CD4^+CD25^− T cells (CD4^+CD25^− T cells [5]; anti-CD3, 24 hours, ELISA): blocked production
- IFN-γ production (CD4^+CD25^− T cells [5]; anti-CD3, ELISA): abrogated
- IL-4 production (CD4^+CD25^− T cells [5]; anti-CD3, ELISA): abrogated
- effect on proliferation of CD4^+CD25^+ T cells (CD4^+CD25^+ T cells [6]): no effect
- reduction of proliferation of CD4^+CD25^− cells (CD4^+CD25^− T cells [7]; [10]): 80%
- proliferation of treated CD4^+CD25^− cells on addition of exogenous IL-2 (CD4^+CD25^− T cells [7]; anti-CD3 + exogenous IL-2): did not restore proliferation; also recorded: did not rescue the proliferation
- CD3-induced elevation of phosphorylated ERK (ERK): abolished
- Numbers of live cells obtained from 1 × 10^6 CD4^+ T cells (CD4^+ T cells): 3.1 ± 0.3 ×10^6 and 2.5 ± 0.5 ×10^6 and 3.4 ± 0.5 ×10^6
- cells recovered from 1×10^6 CD4^+CD25^− cells (CD4^+ T cells): 5×10^5 cells
- cells recovered from 1×10^6 total CD4^+ cells (CD4^+ T cells): 3.6×10^6 cells
- decrease in final yield on removal of CD25^+ T cells prior to treatment (CD4^+ T cells): 80%
- viability or surface antigen expression after pre-incubation (CD4^+ T cells): no difference

Compound: Nc1ncnc2c1ncn2[C@@H]1O[C@H](CO)[C@@H](O)[C@H]1O [adenosine]
- PLD activity induced by TCR stimulation (PLD [8]): completely abrogated
- PLD activation in neutrophils (PLD [9]): inhibit PLD activation

Compound: CC(C)(C)O [t-butanol, Tert-butanol]
- cells expressing Foxp3 and CTLA-4 (in words) (CD4 Foxp3^+ cells; 3 days with 0.3% alcohol, then 4 days IL-2 without alcohol): almost no cells
- expression of CD25 by CD4^+CD25^− T cells (CD4^+CD25^− T cells [1]): did not elicit a significant effect
- anti-CD3-induced elevation of intracellular Ca^2+ (splenic CD4^+ T cells): No significant effect
- anti-CD3 induced cell division [4]: no significant effect
- effect on proliferation of CD4^+CD25^− cells (CD4^+CD25^− T cells [7]; [10]): no significant effect
- CD3-induced elevation of phosphorylated ERK (ERK): no detectable effect
- Numbers of live cells obtained from 1 × 10^6 CD4^+ T cells (CD4^+ T cells; 0.3% alcohol, anti-CD3 + APCs + IL-2, day 7, mean +/− standard deviation, experiments 1-3): 18.5 ± 2.1 ×10^6 and 13 ± 2 ×10^6 and 14 ± 2 ×10^6
